US20230192626A1 (Baylor College of Medicine, priority 2020, published 2023)

The compounds below were run against T1, Human sEH (hsEH) (Homo sapiens, UniProt P34913) (assay: fluorescence-based sEH biochemical inhibition assay (PHOME substrate)). Conditions: Table 1; hsEH 5 nM, PHOME 50 μM, 30° C.
T1 construct: purchased Cayman Chemicals
T1 sequence (P34913 1-555): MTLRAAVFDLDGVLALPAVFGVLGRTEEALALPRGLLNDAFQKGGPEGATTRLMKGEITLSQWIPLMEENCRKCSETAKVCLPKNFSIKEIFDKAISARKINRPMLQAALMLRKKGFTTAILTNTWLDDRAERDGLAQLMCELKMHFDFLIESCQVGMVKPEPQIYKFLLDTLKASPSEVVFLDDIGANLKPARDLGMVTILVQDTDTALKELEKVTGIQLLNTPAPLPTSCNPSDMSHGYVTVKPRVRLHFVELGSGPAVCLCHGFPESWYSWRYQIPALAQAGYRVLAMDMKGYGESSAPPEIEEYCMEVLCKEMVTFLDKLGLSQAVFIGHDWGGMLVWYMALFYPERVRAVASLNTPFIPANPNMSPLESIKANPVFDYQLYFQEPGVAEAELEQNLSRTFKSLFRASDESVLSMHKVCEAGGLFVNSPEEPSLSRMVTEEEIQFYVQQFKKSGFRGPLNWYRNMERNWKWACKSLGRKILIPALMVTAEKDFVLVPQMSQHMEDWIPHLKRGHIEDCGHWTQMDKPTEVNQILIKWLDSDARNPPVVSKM
Experimental: The benzimidazole-based compounds synthesized according to Example 1 were measured for activity. Using a fluorescence-based sEH biochemical inhibition assay, the IC50 value was measured for each benzimidazole-based compound. Human sEH (hsEH) and its substrate PHOME were purchased from Cayman Chemicals. IC50 values of hsEH inhibitors were determined by fluorescence. IC50 is defined as the concentration of the inhibitor that blocks 50% of the enzymatic activity. To a 96-well plate containing 10 μL enzyme (5 nM in water), 60 μL of H2O and 10 μL BisTris-HCl buffer (25 mM, pH 7.0) were added inhibitors with different concentrations. The mixture was incubated for 5 min at 30° C. prior to addition of 10 μL of PHOME substrate (50 μM). Fluorescence were measured at 30° C. with an excitation wavelength of 330 nm and an emission wavelength of 465 nm using a BioTek H1 plate reader. The IC50 values were calculated by non-linear regression fitting. The curve was generated from at least three separate runs, each in duplicates. Results are given as means and standard deviations. In Table 1, an IC50 value less than or equal to 1 μM is indicated as an “A.” an IC50 value from greater than 1 μM to less than 10 μM is indicated as a “B′” and an IC50 value of greater than or equal to 10 μM is indicated as a “C.”
Additional benzimidazole-based compounds as described herein were measured for activity according to the procedure outlined in Example 2. Briefly, using a fluorescence-based sEH biochemical inhibition assay, the IC50 value was measured for each benzimidazole-based compound.

SMILES | IC50 [µM]
N[C@@H](c1ccccc1)c1nc2cc(F)c(F)cc2[nH]1 [Compound 1, (S)-(5,6-difluoro-1λ^2-benzo[d]imidazol-2-yl)(phenyl)methanamine] | ≥ 10
C[C@H](N)c1nc2cc(F)c(F)cc2[nH]1 [Compound 2, (S)-1-(5,6-difluoro-1λ^2-benzo[d]imidazol-2-yl)ethan-1-amine] | ≥ 10
CCCN(CCC)S(=O)(=O)c1ccc(-c2nc3cc(C)c(C)cc3[nH]2)cc1 [Compound 3, 4-(5,6-dimethyl-1H-benzo[d]imidazol-2-yl)-N,N-dipropylbenzenesulfonamide] | 1 to 10
Cc1cc2nc(-c3ccc(F)cc3F)[nH]c2cc1C [Compound 10, 2-(2,4-difluorophenyl)-5,6-dimethyl-1H-benzo[d]imidazole] | ≥ 10
O=C(Cc1ccccc1)Nc1nc2ccccc2[nH]1 [Compound 13, N-(1H-benzo[d]imidazol-2-yl)-2-phenylacetamide] | ≥ 10
O=C(Nc1cc(C(F)(F)F)cc(C(F)(F)F)c1)Nc1nc2ccccc2[nH]1 [Compound 14, 1-(1H-benzo[d]imidazol-2-yl)-3-(3,5-bis(trifluoromethyl)phenyl)urea] | ≥ 10
c1ccc(-c2nc3ccccc3[nH]2)c(-c2nc3ccccc3[nH]2)c1 [Compound 15, 1,2-bis(1H-benzo[d]imidazol-2-yl)benzene] | ≥ 10
Fc1cc2nc(-c3ccc(C(F)(F)F)cc3)[nH]c2cc1F [Compound 16, 5,6-difluoro-2-(4-(trifluoromethyl)phenyl)-1H-benzo[d]imidazole] | ≤ 1
Fc1cc2nc(-c3ccc(-c4ccccc4)cc3)[nH]c2cc1F [Compound 17, 2-([1,1′-biphenyl]-4-y)-5,6-difluoro-1H-benzo[d]imidazole] | 1 to 10
Cc1cc2nc(C3CCN(C)CC3)[nH]c2cc1C [Compound 18, 5,6-dimethyl-2-(1-methylpiperidin-4-yl)-1H-benzo[d]imidazole] | ≥ 10
Cc1cc2nc(-c3ccc(-c4ccccc4)cc3)[nH]c2cc1C [Compound 20, 2-([1,1′-biphenyl]-4-yl)-5,6-dimethyl-1H-benzo[d]imidazole] | ≤ 1
COc1cc(-c2nc3cc(C)c(C)cc3[nH]2)ccn1 [Compound 24, 2-(2-methoxypyridin-4-yl)-5,6-dimethyl-1H-benzo[d]imidazole] | 1 to 10
Cc1cc2nc(-c3ccccn3)[nH]c2cc1C [Compound 25, 5,6-dimethyl-2-(pyridin-2-yl)-1H-benzo[d]imidazole] | ≥ 10
Cc1cc2nc(-c3ccc4ccccc4c3)[nH]c2cc1C [Compound 28, 5,6-dimethyl-2-(naphthalen-2-yl)-1H-benzo[d]imidazole] | ≤ 1
Cc1cc2nc(-c3cccnc3)[nH]c2cc1C [Compound 30, 5,6-dimethyl-2-(pyridin-3-yl)-1H-benzo[d]imidazole] | ≥ 10
Cc1cc2nc(-c3ccnn3C)[nH]c2cc1C [Compound 31, 5,6-dimethyl-2-(1-methyl-1H-pyrazol-5-yl)-1H-benzo[d]imidazole] | ≥ 10
Fc1cc2nc(-c3ccoc3)[nH]c2cc1F [Compound 32, 5,6-difluoro-2-(furan-3-yl)-1H-benzo[d]imidazole] | ≥ 10
Oc1ccc(-c2nc3cc(F)c(F)cc3[nH]2)cc1 [Compound 33, 4-(5,6-difluoro-1H-benzo[d]imidazol-2-yl)phenol] | ≥ 10
FC(F)(F)c1ccc(-c2nc3cc(Cl)c(Cl)cc3[nH]2)cc1 [Compound 34, 5,6-dichloro-2-(4-(trifluoromethyl)phenyl)-1H-benzo[d]imidazole] | 1 to 10
CCc1ccc(-c2nc3cc(F)c(F)cc3[nH]2)cc1 [Compound 35, 2-(4-ethylphenyl)-5,6-difluoro-1H-benzo[d]imidazole imidazole] | ≤ 1
FC(F)(F)c1ccc(-c2nc3ccccc3[nH]2)cc1 [Compound 36, 2-(4-(trifluoromethyl)phenyl)-1H-benzo[d]imidazole] | 1 to 10
CCc1ccc(-c2nc3ccccc3[nH]2)cc1 [Compound 37, 2-(4-ethylphenyl)-1H-benzo[d]imidazole] | 1 to 10
FC(F)(F)c1ccc(-c2nc3cc(Br)c(Br)cc3[nH]2)cc1 [Compound 38, 5,6-dibromo-2-(4-(trifluoromethyl)phenyl)-1H-benzo[d]imidazole] | ≥ 10
CCc1ccc(-c2nc3cc(Br)c(Br)cc3[nH]2)cc1 [Compound 39, 5,6-dibromo-2-(4-ethylphenyl)-1H-benzo[d]imidazole] | 1 to 10
CC(C)(C)c1ccc2[nH]c(-c3ccc(C(F)(F)F)cc3)nc2c1 [Compound 40, 5-(tert-butyl)-2-(4-(trifluoromethyl)phenyl)-1H-benzo[d]imidazole] | 1 to 10
Cc1ccc2[nH]c(-c3ccc(C(F)(F)F)cc3)nc2c1C [Compound 41, 4,5-dimethyl-2-(4-(trifluoromethyl)phenyl)-1H-benzo[d]imidazole] | ≤ 1
COc1cc2nc(-c3ccc(C(F)(F)F)cc3)[nH]c2cc1OC [Compound 42, 5,6-dimethoxy-2-(4-(trifluoromethyl)phenyl)-1H-benzo[d]imidazole] | 1 to 10
Fc1cc2nc(-c3ccc(C(F)(F)F)cc3)[nH]c2cc1Cl [Compound 43, 6-chloro-5-fluoro-2-(4-(trifluoromethyl)phenyl)-1H-benzo[d]imidazole] | ≤ 1
Fc1cc2nc(-c3ccc(C(F)(F)F)cc3)[nH]c2cc1Br [Compound 44, 6-bromo-5-fluoro-2-(4-(trifluoromethyl)phenyl)-1H-benzo[d]imidazole] | ≤ 1

The remaining lines, values ahead:

IC50 [µM] | SMILES
1 to 10 | Cc1cc2nc(Nc3ccc(OC(F)(F)F)cc3)[nH]c2cc1C [Compound 4, 5,6-dimethyl-N-(4-(trifluoromethoxy)phenyl)-1H-benzo[d]imidazol-2-amine]
≤ 1 | CCc1ccc(-c2nc3cc(C)c(C)cc3[nH]2)cc1 [Compound 5, 2-(4-ethylphenyl)-5,6-dimethyl-1H-benzo[d]imidazole]
1 to 10 | Cc1cc2nc(Nc3ccc(C(C)(C)C)cc3)[nH]c2cc1C [Compound 6, N-(4-(tert-butyl)phenyl)-5,6-dimethyl-1H-benzo[d]imidazol-2-amine]
1 to 10 | COc1ccc(Nc2nc3cc(C)c(C)cc3[nH]2)cc1OC [Compound 7, N-(3,4-dimethoxyphenyl)-5,6-dimethyl-1H-benzo[d]imidazol-2-amine]
≥ 10 | Cc1cc2nc(-c3ccccc3O)[nH]c2cc1C [Compound 9, 2-(5,6-dimethyl-1H-benzo[d]imidazol-2-yl)phenol]
≥ 10 | Cc1cc2nc(Oc3ccc(Br)cc3)[nH]c2cc1C [Compound 11, 2-(4-bromophenoxy)-5,6-dimethyl-1H-benzo[d]imidazole]
≥ 10 | Cc1cc2nc(Oc3ccc(OC(F)(F)F)cc3)[nH]c2cc1C [Compound 12, 5,6-dimethyl-2-(4-(trifluoromethoxy)phenoxy)-1H-benzo[d]imidazole]
≤ 1 | Cc1cc2nc(-c3ccc(C(F)(F)F)cc3)[nH]c2cc1C [Compound 19, 5,6-dimethyl-2-(4-(trifluoromethyl)phenyl)-1H-benzo[d]imidazole]
1 to 10 | Cc1ccc(-c2nc3cc(C)c(C)cc3[nH]2)cn1 [Compound 21, 5,6-dimethyl-2-(6-methylpyridin-3-yl)-1H-benzo[d]imidazole]
1 to 10 | Cc1cc2nc(-c3ccc(F)cn3)[nH]c2cc1C [Compound 22, 2-(5-fluoropyridin-2-yl)-5,6-dimethyl-1H-benzo[d]imidazole]
≥ 10 | Cc1cc2nc(-c3ccc(=O)[nH]c3)[nH]c2cc1C [Compound 23, 5-(5,6-dimethyl-1H-benzo[d]imidazol-2-yl)pyridin-2(1H)-one]
≤ 1 | Cc1cc2nc(-c3ccc(C(C)(C)C)cc3)[nH]c2cc1C [Compound 26, 2-(4-(tert-butyl)phenyl)-5,6-dimethyl-1H-benzo[d]imidazole]
≤ 1 | Cc1cc2nc(-c3cccc(C(C)(C)C)c3)[nH]c2cc1C [Compound 27, 2-(3-(tert-butyl)phenyl)-5,6-dimethyl-1H-benzo[d]imidazole]
≥ 10 | Cc1cc2nc(-c3ccncc3)[nH]c2cc1C [Compound 29, 5,6-dimethyl-2-(pyridin-4-yl)-1H-benzo[d]imidazole]
